Data published in publication PMC5458626 (American heart journal, 2017).
Entries after “also recorded” stand apart in the source; their conditions may differ. Blank lines part the entries; values can stand above or below the compound they belong to.

Assays:
[1] = Plasma pharmacokinetics of udenafil and DA-8164; details: for DA-8164 Cmax: plasma metabolite
[2] = system: Phosphodiesterase Type 5 (PDE5); details: major circulating metabolite; ref [15]–[17]; cited from earlier work
[3] = adult males, oral administration; ref [15]–[17]; cited from earlier work
Exercise stress test = type: in vivo, human; details: for Maximal VO2 at maximum exercise effort, follow-up measurement / VO2 at anaerobic threshold, follow-up measurement: day 5, mean ± SD
Adverse events = type: in vivo, human
[4] = Vascular function by peripheral arterial tonometry; type: in vivo, human; details: for Augmentation Index adjusted to HR 75, follow-up measurement / Natural log of Reactive Hyperemic Index, follow-up measurement: day 5; for Natural log of Reactive Hyperemic Index, difference FU – BL: day 5 minus baseline (positive = improvement)
[5] = Echocardiography: myocardial performance index; type: in vivo, human; details: for Blood pool MPI, follow-up measurement / Tissue Doppler MPI, follow-up measurement: day 5; for Blood pool MPI, difference FU – BL: day 5 minus baseline (negative = improvement)
[6] = metabolite, oral udenafil 37.5 mg bid for five days, mean (%CV), N=6
[7] = metabolite, oral udenafil 37.5 mg daily for five days, mean (%CV), N=6
[8] = metabolite, oral udenafil 125 mg daily for five days, mean (%CV), N=6
[9] = once-daily dosing, dose increased 3.3 times
[10] = oral udenafil 37.5 mg bid for five days, mean (%CV), N=6
[11] = oral udenafil 37.5 mg daily for five days, mean (%CV), N=6
[12] = oral udenafil 125 mg daily for five days, mean (%CV), N=6
[13] = twice-daily dosing, dose increased 2.3 times
[14] = once-daily dosing, dose increased 3.3 times (37.5 to 125 mg)
[15] = total udenafil, all cohorts, N=30
[16] = udenafil 37.5 mg daily, 5 days, N=6
[17] = udenafil 37.5 mg twice daily, 5 days, N=6
[18] = udenafil 125 mg daily, 5 days, N=6

Structure (SMILES): CCCOc1ccc(S(N)(=O)=O)cc1-c1nc2c(CCC)nn(C)c2c(=O)[nH]1 [DA-8164]
- DA-8164 T½ (harmonic mean half-life, 0.693/mean kel) ([1]; metabolite, oral udenafil 37.5 mg bid for five days, N=6): 14.1 h
- DA-8164 Cavg (AUC0−τ/τ) [1, 6]: 108 (55) ng/mL
- DA-8164 Tmax [1, 6]: 2.1 (78) h
- DA-8164 kel [1, 6]: 0.0491 (16) h
- DA-8164 AUC0−τ ([1]; metabolite, oral udenafil 37.5 mg bid for five days, τ = 12 hours, mean (%CV), N=6): 1290 (55) ng*h/mL
- DA-8164 T½ (harmonic mean half-life, 0.693/mean kel) ([1]; metabolite, oral udenafil 37.5 mg daily for five days, N=6): 14.6 h
- DA-8164 Cavg (AUC0−τ/τ) [1, 7]: 36.7 (43) ng/mL
- DA-8164 Tmax [1, 7]: 3.1 (51) h
- DA-8164 kel [1, 7]: 0.0474 (34) h
- DA-8164 T½ (harmonic mean half-life, 0.693/mean kel) ([1]; metabolite, oral udenafil 125 mg daily for five days, N=6): 14.5 h
- DA-8164 Cavg (AUC0−τ/τ) [1, 8]: 145 (14) ng/mL
- DA-8164 Tmax [1, 8]: 3.8 (35) h
- DA-8164 kel [1, 8]: 0.0480 (17) h
- Fold increase of mean DA-8164 AUC0−τ with udenafil dose [1, 9]: 4 fold
- Fold increase of mean DA-8164 Cmax with udenafil dose [1, 9]: 4.2 fold
- DA-8164 Cmax [1, 10]: 159 (52) ng/mL
- DA-8164 Cmax [1, 11]: 61.3 (46) ng/mL
- DA-8164 Cmax [1, 12]: 256 (13) ng/mL
- Fold increase of mean DA-8164 AUC0−τ with udenafil dose [1, 13]: 1.9 fold
- Fold increase of mean DA-8164 Cmax with udenafil dose [1, 13]: 1.8 fold
- Potency of DA-8164 relative to udenafil [2]: equipotent

- Dose dependence of oral clearance (CL/F) ([1]; across the five dosing cohorts): decreased with increasing dose
- Cmax ([1]; human, plasma, po, 37.5 mg, Udenafil Cmax, oral udenafil 37.5 mg bid for five days, mean (%CV), N=6): 152 ng/mL
- Fold increase of mean udenafil AUC0−τ with dose [1, 14]: 4 fold
- Fold increase of mean udenafil Cmax with dose [1, 14]: 4.6 fold
- Udenafil CL/F (oral clearance) [1, 10]: 39.9 (36) L/h
- Udenafil CL/F (oral clearance) [1, 11]: 53.3 (40) L/h
- Udenafil CL/F (oral clearance) [1, 12]: 43.3 (39) L/h
Structure (SMILES): CCCOc1ccc(S(=O)(=O)NCCC2CCCN2C)cc1-c1nc2c(CCC)nn(C)c2c(=O)[nH]1 (stereo not shown) [udenafil]
- Udenafil terminal half-life [3]: ~16 h
- Effect on exercise performance (baseline to day 5) (Exercise stress test; all dosing cohorts, 5 days): did not improve in any of the dosing cohorts
- Maximal VO2 at maximum exercise effort, follow-up measurement (Exercise stress test; udenafil 37.5 mg BID, N=6): 28.8 ± 8.1 mL/min/kg
- VO2 at anaerobic threshold, follow-up measurement (Exercise stress test; udenafil 37.5 mg BID, N=6): 18.1 ± 3.0 mL/min/kg
- Maximal VO2 at maximum exercise effort, follow-up measurement (Exercise stress test; udenafil 37.5 mg QD, N=5): 24.7 ± 6.7 mL/min/kg
- VO2 at anaerobic threshold, follow-up measurement (Exercise stress test; udenafil 37.5 mg QD, N=5): 16.3 ± 2.0 mL/min/kg
- Maximal VO2 at maximum exercise effort, follow-up measurement (Exercise stress test; udenafil 125 mg QD, N=6): 28.6 ± 3.8 mL/min/kg
- VO2 at anaerobic threshold, follow-up measurement (Exercise stress test; udenafil 125 mg QD, N=6): 20.0 ± 3.2 mL/min/kg
- Effect of gender on dose-normalized Cmax and Cavg ([1]; male (N=17) vs female (N=13), oral udenafil 5 days): not different for the male and female patients
- Subjects with facial flushing possibly or probably related to study medication (Adverse events; 30 subjects, all cohorts): 33%
- Subjects with nasal congestion possibly or probably related to study medication (Adverse events; 30 subjects, all cohorts): 20%
- Subjects with nausea possibly or probably related to study medication (Adverse events; 30 subjects, all cohorts): 10%
- Dose dependence of reported AEs (Adverse events; across the five dosing cohorts): did not increase with increasing dose
- Subjects with headache (most common AE) (Adverse events; of 30 subjects exposed to udenafil, all cohorts): 19 subjects
- Subjects with headache possibly or probably related to study drug (Adverse events; of the 30 subjects, all cohorts): 63%
- Drug-related serious adverse events (Adverse events; study period, all dosing cohorts): No drug-related serious AEs; also recorded: no drug-related serious adverse events were reported
- Subjects who experienced drug-related (probably or possibly) adverse events: Headache (Adverse events; [15]): 19 (63) n (%)
- Subjects who experienced drug-related adverse events: Abdominal discomfort (Adverse events; [15]): 2 (7) n (%)
- Subjects who experienced drug-related adverse events: Back pain (Adverse events; [15]): 1 (3) n (%)
- Subjects who experienced drug-related adverse events: Flushing (Adverse events; [15]): 10 (33) n (%)
- Subjects who experienced drug-related adverse events: Nasal congestion (Adverse events; [15]): 6 (20) n (%)
- Subjects who experienced drug-related adverse events: Nausea (Adverse events; [15]): 3 (10) n (%)
- Subjects who experienced drug-related (probably or possibly) adverse events: Headache (Adverse events; [16]): 3 (50) n (%)
- Subjects who experienced drug-related adverse events: Abdominal discomfort (Adverse events; [16]): 0 (0) n (%)
- Subjects who experienced drug-related adverse events: Back pain (Adverse events; [16]): 0 (0) n (%)
- Subjects who experienced drug-related adverse events: Flushing (Adverse events; [16]): 1 (17) n (%)
- Subjects who experienced drug-related adverse events: Nasal congestion (Adverse events; [16]): 1 (17) n (%)
- Subjects who experienced drug-related adverse events: Nausea (Adverse events; [16]): 1 (17) n (%)
- Subjects who experienced drug-related adverse events: Spontaneous penile erection (Adverse events; udenafil 37.5 mg daily, 5 days, N=6, male subjects only): 0 (0) n (%)
- Subjects who experienced drug-related (probably or possibly) adverse events: Headache (Adverse events; [17]): 4 (67) n (%)
- Subjects who experienced drug-related adverse events: Abdominal discomfort (Adverse events; [17]): 0 (0) n (%)
- Subjects who experienced drug-related adverse events: Back pain (Adverse events; [17]): 0 (0) n (%)
- Subjects who experienced drug-related adverse events: Flushing (Adverse events; [17]): 2 (33) n (%)
- Subjects who experienced drug-related adverse events: Nasal congestion (Adverse events; [17]): 2 (33) n (%)
- Subjects who experienced drug-related adverse events: Nausea (Adverse events; [17]): 1 (17) n (%)
- Subjects who experienced drug-related (probably or possibly) adverse events: Headache (Adverse events; [18]): 4 (67) n (%)
- Subjects who experienced drug-related adverse events: Abdominal discomfort (Adverse events; [18]): 1 (17) n (%)
- Subjects who experienced drug-related adverse events: Back pain (Adverse events; [18]): 0 (0) n (%)
- Subjects who experienced drug-related adverse events: Flushing (Adverse events; [18]): 1 (17) n (%)
- Subjects who experienced drug-related adverse events: Nasal congestion (Adverse events; [18]): 1 (17) n (%)
- Subjects who experienced drug-related adverse events: Nausea (Adverse events; [18]): 0 (0) n (%)
- Effect on lnRHI and AI (baseline to day 5) ([4]; all dosing cohorts, 5 days): no discernible differences between paired baseline and follow-up measures of lnRHI or AI in any dosing cohort
- Augmentation Index adjusted to HR 75, follow-up measurement ([4]; all udenafil subjects, N=28): −2.18±13.91
- Natural log of Reactive Hyperemic Index, follow-up measurement ([4]; all udenafil subjects, N=28): 0.49±0.28
- Augmentation Index adjusted to HR 75, follow-up measurement ([4]; udenafil 37.5 mg BID, N=6): 2.89±7.11
- Natural log of Reactive Hyperemic Index, follow-up measurement ([4]; udenafil 37.5 mg BID, N=6): 0.53±0.29
- Augmentation Index adjusted to HR 75, follow-up measurement ([4]; udenafil 37.5 mg QD, N=6): −0.62±23.82
- Natural log of Reactive Hyperemic Index, follow-up measurement ([4]; udenafil 37.5 mg QD, N=6): 0.51±0.26
- Augmentation Index adjusted to HR 75, follow-up measurement ([4]; udenafil 125 mg QD, N=6): 1.90±8.65
- Natural log of Reactive Hyperemic Index, follow-up measurement ([4]; udenafil 125 mg QD, N=6): 0.52±0.34
- Natural log of Reactive Hyperemic Index, difference FU – BL ([4]; all udenafil subjects, N=27): −0.02±0.30
- Natural log of Reactive Hyperemic Index, difference FU – BL ([4]; udenafil 37.5 mg BID, N=6): −0.07±0.17
- Natural log of Reactive Hyperemic Index, difference FU – BL ([4]; udenafil 37.5 mg QD, N=6): 0.03±0.47
- Natural log of Reactive Hyperemic Index, difference FU – BL ([4]; udenafil 125 mg QD, N=6): −0.10±0.38
- Blood pool MPI, follow-up measurement ([5]; all udenafil subjects, N=28): 0.52±0.17
- Tissue Doppler MPI, follow-up measurement ([5]; all udenafil subjects, N=28): 0.71±0.20
- Blood pool MPI, follow-up measurement ([5]; udenafil 37.5 mg BID, N=6): 0.49±0.087
- Tissue Doppler MPI, follow-up measurement ([5]; udenafil 37.5 mg BID, N=6): 0.73±0.23
- Blood pool MPI, follow-up measurement ([5]; udenafil 37.5 mg QD, N=5): 0.50±0.19
- Tissue Doppler MPI, follow-up measurement ([5]; udenafil 37.5 mg QD, N=5): 0.64±0.21
- Blood pool MPI, follow-up measurement ([5]; udenafil 125 mg QD, N=5): 0.70±0.20
- Tissue Doppler MPI, follow-up measurement ([5]; udenafil 125 mg QD, N=5): 0.82±0.27
- Blood pool MPI, difference FU – BL ([5]; all udenafil subjects, N=27): −0.059±0.13
- Blood pool MPI, difference FU – BL ([5]; udenafil 37.5 mg BID, N=6): −0.003±0.10
- Blood pool MPI, difference FU – BL ([5]; udenafil 37.5 mg QD, N=5): −0.052±0.17
- Blood pool MPI, difference FU – BL ([5]; udenafil 125 mg QD, N=5): −0.054±0.18
